Where two headings read alike, the source gives them in different places.
Assays:
human mGlu4 = human mGlu4 (Homo sapiens (Human), UniProt Q14833); experiment: mGlu4 PAM assay in human mGlu4/Gqi5 cells with ~EC20 glutamate (Hamamatsu FDSS); format: cell-based; settings: ~EC20 concentration of glutamate
Method: The disclosed compounds and compositions can be evaluated for their ability to act as a potentiatior of metabotropic glutamate receptor activity, in particular mGluR4 activity, by any suitable known methodology known in the art. For example, Chinese Hamster Ovary (CHO) cells transfected with human mGluR4 or HEK cells co-transfected with rat mGluR4 and the G-protein regulated Inwardly Rectifying Potassium channel (GIRK) were plated in clear bottom assay plates for assay in a Hamamatsu FDSS Fluorometric Plate Reader. The cells were loaded with either a Ca2+-sensitive fluorescent dye or the thallium responsive dye and the plates were washed and placed into a suitable kinetic plate reader. For human mGluR4 assays, a fluorescence baseline was established for 3-5 seconds, the disclosed compounds were then added to the cells, and the response in cells was measured. Approximately two and a half minutes later, a concentration of mGluR4 orthosteric agonist (e.g. glutamate, L-AP4, or L-SOP) eliciting approximately 20% (EC20) of the maximal agonist response was added to the cells, and the response was measured. Two minutes later, a concentration of mGluR4 agonist (e.g. glutamate, L-AP4, or L-SOP) eliciting 80% (EC80) of the maximal agonist response was added to the cells, and the response was measured. For rat mGluR4/GIRK experiments, a baseline was established for approximately five seconds, disclosed compounds were added, and either an EC20 or EC80 concentration of agonist was added approximately two and one half minutes later.
The above described assay operated in two modes. In the first mode, a range of concentrations of the disclosed compounds are added to cells, followed by a single fixed concentration of agonist. If the compound acts as a potentiatior, an EC50 value for potentiation and a maximum extent of potentiation by the compound at this concentration of agonist is determined by non-linear curve fitting. If the compound acts as an antagonist, an IC50 value is determined by non-linear curve fitting. In the second mode, several fixed concentrations of the disclosed compounds are added to various wells on a plate, followed by a range in concentrations of agonist for each concentration of disclosed compound. The EC50 values for the agonist at each concentration of compound are determined by non-linear curve fitting. A decrease in the EC50 value of the agonist with increasing concentrations of the sample compound (a leftward shift of the agonist concentration-response curve) is an indication of the degree of mGluR4 potentiation at a given concentration of the sample compound. A decrease in the maximal response of the agonist with increasing concentrations of the sample compounds, with or without a rightward shift in agonist potency, is an indication of the degree of antagonism at mGluR4. The second mode also indicates whether the sample compounds also affect the maximum response to mGluR4 to agonists.

Brain-Plasma Kp = format: in vivo; settings: brain and plasma
rat CNS penetration (Kp) = format: in vivo; settings: brain/plasma
[1] = test system: haloperidol-induced catalepsy; experiment: haloperidol-induced catalepsy (standard PD model); format: in vivo, rodent; settings: oral doses after haloperidol; relative to control mGlu4 PAM VU506
From the text: B) Efficacy of example 131 in the standard PD model of haloperidol-induced catalepsy, relative to a control mGlu4 PAM, VU506. […] Also see a) Engers, D. W.; Gogliotti, R. D.; Cheung, Y-Y.; Salovich, J. M.; Garcia-Barrantes, P. M.; Daniels, J. S.; Morrison, R.; Jones, C. K.; Blobaum, A. L.; Macor, J. E.; Bronson, J. J.; Conn, P. J.; Lindsley, C. W.; Niswender, C. M.; Hopkins, C. R. ‘Discovery, synthesis and pre-clinical characterization of N-(3-chloro-4-fluorophenyl)-1H-pyrazolo[4,3-b]pyridin-3-amine (VU0418506), a novel positive allosteric modulator of the metabotropic glutamate receptor 4 (mGlu4)’ ACS Chem. Neurosci. 2016, 7, 1192-1200; b) Niswender, C. M.; Jones, C. K.; Bubser, M.; Gray, A. T.; Blobaum, A. L.; Engers, D. W.; Altman, M. K.; O'Brien, D. E.; Rook, J. M.; Rodriguez, A. L.; Loch, M. T.; Daniels, J. S.; Lindsley, C. W.; Hopkins, C. R.; Conn, P. J. ‘Development of VU0418506, a positive allosteric modulator that differentiates metabotropic glutamate receptor 4 (mGlu4) homomeric receptors from mGlu2/4 heteromers’ ACS Chem. Neurosci., 2016, 7, 1201-1211.

Sequence of human mGlu4 (Q14833 33-912): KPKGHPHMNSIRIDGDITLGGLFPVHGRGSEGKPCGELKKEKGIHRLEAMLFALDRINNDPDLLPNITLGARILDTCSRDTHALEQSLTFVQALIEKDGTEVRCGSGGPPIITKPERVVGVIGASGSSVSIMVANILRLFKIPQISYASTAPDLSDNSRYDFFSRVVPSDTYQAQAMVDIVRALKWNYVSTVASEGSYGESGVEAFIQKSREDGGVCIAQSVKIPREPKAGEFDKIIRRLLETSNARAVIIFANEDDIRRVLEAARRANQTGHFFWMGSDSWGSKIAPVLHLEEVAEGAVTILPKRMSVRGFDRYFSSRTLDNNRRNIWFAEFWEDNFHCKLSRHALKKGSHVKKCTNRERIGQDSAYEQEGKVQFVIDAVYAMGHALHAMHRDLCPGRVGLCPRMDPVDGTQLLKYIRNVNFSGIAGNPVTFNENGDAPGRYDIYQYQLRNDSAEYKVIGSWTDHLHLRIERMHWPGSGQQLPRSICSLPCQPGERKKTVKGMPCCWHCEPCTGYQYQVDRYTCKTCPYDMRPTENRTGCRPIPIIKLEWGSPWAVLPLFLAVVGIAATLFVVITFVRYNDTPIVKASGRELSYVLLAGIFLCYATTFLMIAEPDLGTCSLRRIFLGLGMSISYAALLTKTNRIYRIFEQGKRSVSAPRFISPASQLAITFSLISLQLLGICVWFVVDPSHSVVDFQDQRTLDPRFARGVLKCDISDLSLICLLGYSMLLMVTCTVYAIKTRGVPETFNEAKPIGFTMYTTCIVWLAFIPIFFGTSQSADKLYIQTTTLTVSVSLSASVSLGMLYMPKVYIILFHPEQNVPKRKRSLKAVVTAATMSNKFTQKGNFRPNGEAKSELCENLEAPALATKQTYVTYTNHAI

Compound | EC50 (human mGlu4; read-out: hmGluR4 PAM EC50) [nM] | Kp (Brain-Plasma Kp; rat) | other results
Cn1nc(C(=O)NC2CC(F)(F)C2)c2ccc(NC(=O)c3ccc(F)cn3)cc21 | 324 | 1.09 | 
Cn1nc(OC[C@@H]2COCCO2)c2ccc(NC(=O)c3ccccn3)cc21 | 119 | 1.47 | 
O=C(Nc1ccc2c(OC[C@@H]3CCOC3)n[nH]c2c1)c1ccccn1 | 201 | 1.44 | 
O=C(Nc1ccc2c(OC[C@H]3CCOC3)n[nH]c2c1)c1ccccn1 | 228 | 1.42 | 
Cn1nc(C(=O)NC23CC(F)(C2)C3)c2ccc(NC(=O)c3ccccn3)cc21 | 569 | 1.43 | 
Cn1nc(OCC2CCOCC2)c2ccc(NC(=O)c3ccc(F)cn3)cc21 | 99.2 |  | Kp (Brain-Plasma Kp): 3.29
Cn1nc(OC[C@H]2COCCO2)c2ccc(NC(=O)c3ncccc3N)cc21 [Compound 131] |  |  | EC50 (human mGlu4; read-out: mGlu4 PAM EC50): 50.1 nM; Kp (rat CNS penetration (Kp)): 1.6; reversal of haloperidol-induced catalepsy [1]: reverse catalepsy in a dose-dependent manner
Cn1nc(OCC2CCOC2)c2ccc(NC(=O)c3ncccc3N)cc21 (centres unmarked) [drawing 241] | 75.4 | 3.09 | 
Cn1nc(OCC2CCOC2)c2ncc(NC(=O)c3ncccc3N)cc21 (centres unmarked) [drawing 242] | 86.8 | 0.72 | 
Cn1nc(OCC2CCOCC2)c2ncc(NC(=O)c3ccccn3)cc21 [drawing 243] | 394 | 1.51 | 
Cn1nc(OC[C@@H]2CCOC2)c2ccc(NC(=O)c3ncccc3N)cc21 [drawing 244] | 27.3 | 2.47 | 
Cn1nc(OC[C@H]2CCOC2)c2ccc(NC(=O)c3ncccc3N)cc21 [drawing 245] | 24.2 | 2.9 | 
Cn1nc(OC[C@@H]2CCOC2)c2ncc(NC(=O)c3ncccc3N)cc21 [drawing 246] | 120 | 1.84 | 
Cn1nc(OC[C@H]2CCOC2)c2ncc(NC(=O)c3ncccc3N)cc21 [drawing 247] | 166 | 1.83 | 
Cn1nc(OC[C@@H]2COCCO2)c2ccc(NC(=O)c3ncccc3N)cc21 [drawing 248] | 50.1 | 2.3 | 
Cn1nc(OC[C@H]2COCCO2)c2ccc(NC(=O)c3ncccc3N)cc21 [drawing 249] | 58.7 | 1.88 | 
Cn1nc(OCC2CCOC2)c2ccc(NC(=O)c3cccc(F)n3)cc21 (centres unmarked) [drawing 251] | 266 | 3.35 | 
